Like-named read-outs stand apart in the source and are kept apart here.
What was measured:
[1] = test system: sixty human tumour cell lines; experiment: NCI in vitro cytotoxicity, sixty human tumour cell lines (SRB); assay type: cell-based; conditions: for GI50: bound over all cell lines; for Log10 GI50 mean graph midpoint (MG_MID) / Log10 TGI mean graph midpoint (MG_MID): human tumour cell lines; for Log10 TGI mean graph midpoint (MG_MID): total cell growth inhibition
Experimental: (§1) Biological Activity: The in vitro biological activity studies were carried out at the National Cancer Institute, Maryland, USA.
(§2) The C8-linked isoxazoline-PBD hybrids have been tested against sixty human tumour cell lines derived from nine cancer types (leukemia, non-small cell lung cancer, colon cancer, CNS cancer, melanoma, ovarian cancer, renal cancer, prostate cancer and breast cancer) as per NCI protocol. For each compound, dose response curves for individual cell lines have been measured at a minimum of five concentrations at 10 fold dilutions. A protocol of 48 hrs continuous drug exposure has been used, and a sulforhodamine B (SRB) protein assay was used to estimate cell viability or growth. The concentration for 50% cell growth inhibition (GI50), total cell growth inhibition (TGI, 0% growth) and 50% cell death (LC50, […]) compared with the control has been calculated (FIG. 2).
(§3) Compound 5b and 9b have been evaluated for in vitro cytotoxicity in sixty cell lines from nine human cancer types of lung (Hop-62, NCI-H226, NCI-H522), leukemia (K-562, SR), colon (HCT-116, HCT-15, HCC-2998), CNS(SF-539), melanoma (SK-MEL-5, UACC-62, M14), ovarian (IGROV1), renal (A498), prostate (PC3) breast (BT-549, MDA-MB-435, HS578T) origin. The results are expressed as percent of cell growth determined relative to that of untreated control cells (Table 1).

[2] = test system: CNS; experiment: NCI SRB cytotoxicity, CNS cancer panel; assay type: cell-based, human; conditions: average of six to eight different cancer cell lines; for Log10 LC50: 50% lethality
Experimental: as §1, §2, §3

[3] = test system: Melanoma; experiment: NCI SRB cytotoxicity, melanoma panel; assay type: cell-based, human; conditions: average of six to eight different cancer cell lines; for Log10 LC50: 50% lethality
Experimental: as §1, §2, §3

[4] = test system: Renal; experiment: NCI SRB cytotoxicity, renal cancer panel; assay type: cell-based, human; conditions: average of six to eight different cancer cell lines; for Log10 LC50: 50% lethality
Experimental: as §1, §2, §3

[5] = test system: MOLT-4; experiment: NCI SRB cytotoxicity, MOLT-4 (leukemia); assay type: cell-based, human; conditions: 48 hrs exposure
Experimental: as §1, §2, §3

[6] = test system: RPMI-8226; experiment: NCI SRB cytotoxicity, RPMI-8226 (leukemia); assay type: cell-based, human; conditions: 48 hrs exposure
Experimental: as §1, §2, §3

[7] = test system: A549/ATCC; experiment: NCI SRB cytotoxicity, A549/ATCC (non-small cell lung); assay type: cell-based, human; conditions: Non-smallcell lung, 48 hrs exposure
Experimental: as §1, §2, §3

[8] = test system: EKVX; experiment: NCI SRB cytotoxicity, EKVX (non-small cell lung); assay type: cell-based, human; conditions: Non-smallcell lung, 48 hrs exposure
Experimental: as §1, §2, §3

[9] = test system: HOP-62; experiment: NCI SRB cytotoxicity, HOP-62 (non-small cell lung); assay type: cell-based, human
Experimental: as §1, §2, §3

[10] = test system: HOP-92; experiment: NCI SRB cytotoxicity, HOP-92 (non-small cell lung); assay type: cell-based, human; conditions: HOP-92, Non-smallcell lung; 48 hrs exposure
Experimental: as §1, §2, §3

[11] = test system: NCI-H226; experiment: NCI SRB cytotoxicity, NCI-H226 (non-small cell lung); assay type: cell-based, human
Experimental: as §1, §2, §3

[12] = test system: NCI-H23; experiment: NCI SRB cytotoxicity, NCI-H23 (non-small cell lung); assay type: cell-based, human; conditions: NCI-H23, Non-smallcell lung; 48 hrs exposure
Experimental: as §1, §2, §3

[13] = test system: NCI-H322M; experiment: NCI SRB cytotoxicity, NCI-H322M (non-small cell lung); assay type: cell-based, human; conditions: Non-smallcell lung, 48 hrs exposure
Experimental: as §1, §2, §3

[14] = test system: NCI-H522; experiment: NCI SRB cytotoxicity, NCI-H522 (non-small cell lung); assay type: cell-based, human
Experimental: as §1, §2, §3

[15] = test system: HCC-2998; experiment: NCI SRB cytotoxicity, HCC-2998 (colon); assay type: cell-based, human
Experimental: as §1, §2, §3

[16] = test system: HCT-15; experiment: NCI SRB cytotoxicity, HCT-15 (colon); assay type: cell-based, human
Experimental: as §1, §2, §3

[17] = test system: U251; experiment: NCI SRB cytotoxicity, U251 (CNS); assay type: cell-based, human; conditions: 48 hrs exposure
Experimental: as §1, §2, §3

[18] = test system: LOX IMVI; experiment: NCI SRB cytotoxicity, LOX IMVI (melanoma); assay type: cell-based, human; conditions: 48 hrs exposure
Experimental: as §1, §2, §3

[19] = test system: M14; experiment: NCI SRB cytotoxicity, M14 (melanoma); assay type: cell-based, human
Experimental: as §1, §2, §3

[20] = test system: SK-MEL-2; experiment: NCI SRB cytotoxicity, SK-MEL-2 (melanoma); assay type: cell-based, human; conditions: 48 hrs exposure
Experimental: as §1, §2, §3

[21] = test system: SK-MEL-28; experiment: NCI SRB cytotoxicity, SK-MEL-28 (melanoma); assay type: cell-based, human; conditions: 48 hrs exposure
Experimental: as §1, §2, §3

[22] = test system: SK-MEL-5; experiment: NCI SRB cytotoxicity, SK-MEL-5 (melanoma); assay type: cell-based, human
Experimental: as §1, §2, §3

[23] = test system: OVCAR-4; experiment: NCI SRB cytotoxicity, OVCAR-4 (ovarian); assay type: cell-based, human; conditions: 48 hrs exposure
Experimental: as §1, §2, §3

[24] = test system: OVCAR-5; experiment: NCI SRB cytotoxicity, OVCAR-5 (ovarian); assay type: cell-based, human; conditions: 48 hrs exposure
Experimental: as §1, §2, §3

[25] = test system: OVCAR-8; experiment: NCI SRB cytotoxicity, OVCAR-8 (ovarian); assay type: cell-based, human; conditions: 48 hrs exposure
Experimental: as §1, §2, §3

[26] = test system: SK-OV-3; experiment: NCI SRB cytotoxicity, SK-OV-3 (ovarian); assay type: cell-based, human; conditions: 48 hrs exposure
Experimental: as §1, §2, §3

[27] = test system: 786-0; experiment: NCI SRB cytotoxicity, 786-0 (renal); assay type: cell-based, human; conditions: 48 hrs exposure
Experimental: as §1, §2, §3

[28] = test system: ACHN; experiment: NCI SRB cytotoxicity, ACHN (renal); assay type: cell-based, human; conditions: 48 hrs exposure
Experimental: as §1, §2, §3

[29] = test system: RXF 393; experiment: NCI SRB cytotoxicity, RXF 393 (renal); assay type: cell-based, human; conditions: 48 hrs exposure
Experimental: as §1, §2, §3

[30] = test system: SN12C; experiment: NCI SRB cytotoxicity, SN12C (renal); assay type: cell-based, human; conditions: 48 hrs exposure
Experimental: as §1, §2, §3

[31] = test system: TK-10; experiment: NCI SRB cytotoxicity, TK-10 (renal); assay type: cell-based, human; conditions: 48 hrs exposure
Experimental: as §1, §2, §3

[32] = test system: MDA-MB-; experiment: NCI SRB cytotoxicity, MDA-MB- (breast); assay type: cell-based, human; conditions: 48 hrs exposure
Experimental: as §1, §2, §3

[33] = test system: MDA-MB-435; experiment: NCI SRB cytotoxicity, MDA-MB-435 (breast); assay type: cell-based, human
Experimental: as §1, §2, §3

[34] = test system: BT-549; experiment: NCI SRB cytotoxicity, BT-549 (breast); assay type: cell-based, human
Experimental: as §1, §2, §3

[35] = test system: MDA-MB-468; experiment: NCI SRB cytotoxicity, MDA-MB-468 (breast); assay type: cell-based, human; conditions: 48 hrs exposure
Experimental: as §1, §2, §3

[36] = test system: PC-3; experiment: NCI SRB cytotoxicity, PC-3 (prostate); assay type: cell-based, human
Experimental: as §1, §2, §3

[37] = text b111, read-out: GI50 against sixty cell lines in nine cancer cell panels
[38] = HOP-62, Non-smallcell lung, 48 hrs exposure
[39] = NCI-H226, Non-smallcell lung, 48 hrs exposure
[40] = NCI-H522, Non-smallcell lung, 48 hrs exposure
[41] = HCC-2998, Colon, 48 hrs exposure
[42] = SK-MEL-5, Melanoma, 48 hrs exposure
[43] = MDA-MB-435, Breast, 48 hrs exposure
[44] = BT-549, Breast, 48 hrs exposure
[45] = PC-3, Prostate, 48 hrs exposure

COc1cc(C2=NOC(c3cc(OC)c(OC)c(OC)c3)C2)ccc1OCCCCOc1cc2c(cc1OC)C(=O)N1CCC[C@H]1C=N2 (stereo partly drawn) [Compound 5b, (11aS)-7-(methyloxy)-8-(4-[(2-(methyloxy)-4-5-[3,4,5-tri(methyloxy)phenyl]-4,5-dihydro-3-isoxazolylphenyl)oxy]butyloxy)-2,3,5,11a-tetrahydro-1H benzo[e]pyrrolo[1,2-a][1,4]diazepin-5-one]
GI50 ([1]; read-out: GI50 against sixty cell lines in nine cell panels): < 470 nM
in vitro cytotoxicity (in words) ([1]; human cancer cell lines): significant cytotoxicity
Log10 GI50 mean graph midpoint (MG_MID) [1]: −6.59
Log10 TGI mean graph midpoint (MG_MID) [1]: −6.05
activity of 5b compared with 9b ([1]; in vitro cytotoxicity, comparison of GI50): ten folds higher activity than 9b
GI50 [1, 37]: < 470 nM
Log10 LC50 [2]: −5.18 mol/L
Log10GI50 [2]: −6.51 mol/L
Log10 LC50 [3]: −5.82 mol/L
Log10GI50 [3]: −6.68 mol/L
Log10 LC50 [4]: −4.94 mol/L
Log10GI50 [4]: −6.58 mol/L
GI50 [5]: 200 nM
GI50 [6]: 240 nM
GI50 [7]: 260 nM
GI50 [8]: 460 nM
GI50 [9, 38]: 270 nM
GI50 ([9]; non-small cell lung cancer HOP-62): 270 nM
GI50 [10]: 310 nM
GI50 [11, 39]: 170 nM
GI50 ([11]; non-small cell lung cancer NCI-H226): 310 nM
GI50 [12]: 270 nM
GI50 [13]: 340 nM
GI50 [14, 40]: 120 nM
GI50 ([14]; non-small cell lung cancer NCI-H522): 120 nM
GI50 [15, 41]: 190 nM
GI50 ([15]; colon cancer HCC-2998): 190 nM
GI50 ([16]; HCT-15, Colon, 48 hrs exposure): 180 nM
GI50 ([16]; colon cancer HCT-15): 190 nM
GI50 [17]: 300 nM
GI50 [18]: 220 nM
GI50 ([19]; M14, Melanoma, 48 hrs exposure): 180 nM
GI50 ([19]; melanoma M14): 180 nM
GI50 [20]: 230 nM
GI50 [21]: 200 nM
GI50 [22, 42]: 160 nM
GI50 ([22]; melanoma SK-MEL-5): 200 nM
GI50 [23]: 400 nM
GI50 [24]: 420 nM
GI50 [25]: 370 nM
GI50 [26]: 470 nM
GI50 [27]: 280 nM
GI50 [28]: 280 nM
GI50 [29]: 210 nM
GI50 [30]: 300 nM
GI50 [31]: 280 nM
GI50 [32]: 190 nM
GI50 [33, 43]: 170 nM
GI50 ([33]; breast MDA-MB-435): 170 nM
GI50 [34, 44]: 90 nM
GI50 ([34]; breast BT-549): 90 nM
GI50 [35]: 220 nM
GI50 [36, 45]: 320 nM
GI50 ([36]; prostate PC-3): 320 nM

COc1ccc(C2CC(c3ccc(OC)c(OC)c3OC)=NO2)cc1OCCCCOc1cc2c(cc1OC)C(=O)N1CCC[C@H]1C=N2 (stereo partly drawn) [Compound 9b, (11aS)-7-(methyloxy)-8-(4-[(2-(methyloxy)-5-3-[2,3,4-tri(methyloxy)phenyl]-4,5-dihydro-5-isoxazolylphenyl)oxy]butyloxy)-2,3,5,11a-tetrahydro-1H-benzo[e]pyrrolo[1,2-a][1,4]diazepin-5-one]
Log10 GI50 mean graph midpoint (MG_MID) [1]: −5.73
Log10 TGI mean graph midpoint (MG_MID) [1]: −5.28
GI50 [1, 37]: < 3540 nM
Log10 LC50 [2]: −5.05 mol/L
Log10GI50 [2]: −5.74 mol/L
Log10 LC50 [3]: −5.12 mol/L
Log10GI50 [3]: −5.72 mol/L
Log10 LC50 [4]: −4.77 mol/L
Log10GI50 [4]: −5.62 mol/L
GI50 [5]: 1850 nM
GI50 [6]: 1430 nM
GI50 [7]: 2330 nM
GI50 [8]: 3680 nM
GI50 [9, 38]: 1680 nM
GI50 [10]: 2470 nM
GI50 [11, 39]: 1670 nM
GI50 [12]: 1830 nM
GI50 [13]: 3460 nM
GI50 [14, 40]: 610 nM
GI50 [15, 41]: 1580 nM
GI50 ([16]; HCT-15, Colon, 48 hrs exposure): 2270 nM
GI50 [17]: 1730 nM
GI50 [18]: 1470 nM
GI50 ([19]; M14, Melanoma, 48 hrs exposure): 1730 nM
GI50 [20]: 2030 nM
GI50 [21]: 2070 nM
GI50 [22, 42]: 1470 nM
GI50 [23]: 2070 nM
GI50 [24]: 3130 nM
GI50 [25]: 2550 nM
GI50 [26]: 3370 nM
GI50 [27]: 1570 nM
GI50 [28]: 2410 nM
GI50 [29]: 1390 nM
GI50 [30]: 1580 nM
GI50 [31]: 3510 nM
GI50 [32]: 1150 nM
GI50 [33, 43]: 3540 nM
GI50 [34, 44]: 1230 nM
GI50 [35]: 1340 nM
GI50 [36, 45]: 580 nM

Reference: patent publication US8372831B2, “Isoxazoline linked pyrrolo[2,1-c][1,4]benzodiazepine hybrids as potential anticancer agents and the process for preparation thereof” (Council of Scientific & Industrial Research, priority 2008, dated 2013)
